pKd: −log10 of the molar value. Where two headings read alike, the source gives them in different places. Marks after values point to notes of the source that are not given here.
Legend:
Burkholderia [1] = test system: Burkholderia
Plasmodium falciparum = assay: Antimalarial initial tests, three strains of drug resistant malaria; details: all three strains of drug resistant malaria
Burkholderia [2] = assay: microbe, parasite or virus in culture; details: read-out: inhibition against Burkholderia
B. pseudomallei = assay type: cell-based, Burkholderia pseudomallei; details: for concentration effects on growth of B. pseudomallei over time: 1 mM to 31.25 μM, FIGS. 3-10, strains 1026b and 340
IspF = IspF (Burkholderia pseudomallei, UniProt Q3JRA0); assay: biochemical; assay type: binding
[3] = relative to DMSO control, 0.00 = growth with inhibitor equal to or greater than DMSO control

Sequence of IspF (Q3JRA0 whole entry, looked up): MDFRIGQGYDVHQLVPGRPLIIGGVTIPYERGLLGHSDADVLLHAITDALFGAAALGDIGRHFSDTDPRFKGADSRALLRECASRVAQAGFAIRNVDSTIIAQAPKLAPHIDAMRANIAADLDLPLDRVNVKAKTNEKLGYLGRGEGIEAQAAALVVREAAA

| Compound | % Growth Inhibition Endpoint (24 h) (Burkholderia [1]; [3]) | antimalarial potency in initial tests (Plasmodium falciparum) | concentration effects on growth of B. pseudomallei over time (B. pseudomallei) | % Growth Inhibition Growth Curve (Burkholderia [1]; [3]) [%] | further results |
| --- | --- | --- | --- | --- | --- |
| Oc1ccc(-c2cncn2CCc2ccc(Cl)cc2)cc1 [HGN-0051] | 0.00^b % | potent |  |  |  |
| O=C([O-])c1cnc(NCc2ccco2)nc1[O-].[Na+].[Na+] [HGN-0049] | 12.25 ± 0.40% | submicromolar |  |  |  |
| O=C(O)c1cnc(NCCc2ccc(Cl)cc2Cl)nc1O [HGN-0118] |  |  |  |  | inhibition at 1000 µM (Burkholderia [2]): 94.5% |
| O=C([O-])c1cnc(NCCc2ccc(Cl)cc2)nc1[O-].[Na+].[Na+] [HGN-0028] |  |  | dose dependent | 68.20 ± 2.12 | growth of B. pseudomallei over time (B. pseudomallei; FIG. 2): inhibited the growth; B. pseudomallei growth inhibition at lower concentrations (B. pseudomallei; lower concentrations): did not inhibit; pKd (IspF): 3.52 |
| Oc1ccc(-n2ccnc2)cc1 [HGN-0029] |  |  | did not inhibit the growth | 23.58 ± 0.54 |  |
| CCOC(=O)c1cnc(Nc2ccc(N3CCOCC3)cc2)[nH]c1=O [HGN-0037] |  |  |  |  | % Growth Inhibition Endpoint (24 h) (Burkholderia [1]; cells printing symbol L): L^c; Kd (IspF; pH 7.4): not soluble |
